Experiment in all cases: NCI tumour cell line growth inhibition, 48 h
In test [1] the test system is XF 498 CNS.
Test [2] has as its system KM20L2 colon.
The test system of test [3] is DMS 114 small cell lung.
Test [4] concerns HOP-18 NSCLC.
Test [5] deals with LXFL 529 NSCLC.
Test [6] has as its system DMS 273 small cell lung.
The subject of test [7] is DLD-1 colon.
The subject of test [8] is RXF-631 renal.
In test [9] the test system is MDA-N.
For test [10], the system named is P388 leukemia.
Test [11] deals with P388/ADR leukemia.

“And” between values parts separate entries of the source, which are not always exact repeats. Identical values can stand only once.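 The compound was tested at five concentrations on cells cultured in 96-well plates, with a 48-hour exposure period. The concentration for 50% growth inhibition is given as GI50. The concentration for full growth arrest is given as TGI.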 Some results are limits rather than exact numbers.

Consider `CC1=C2[C@@H](c3ccccc3)C3C=CC2(c2ccccc23)N(C(=O)Nc2cccc3ccccc23)C1=O` (stereo partly drawn), for which the TGI in test [1], in test [2], in test [3], in test [4], in test [5] and in test [6] was more than 100 µM in each case.

As to `CC1OC(n2cc(I)c(=O)[nH]c2=O)C=CC1=O` (stereo not drawn), the TGI worked out at 33.3 µM in test [1]; 31 µM in test [2]; 31 µM in [3]; 30.3 µM in test [4]; 22.7 µM in [5]; 31.3 µM in test [6]. This molecule registered a TGI in [7] of 26 µM.

`CCOC(=O)NN(C(=O)OCC)C(C(=O)c1ccc(Cl)cc1)=C1NCCN1`: the TGI in test [1], in test [2], in test [3], in test [4], in test [5] and in test [6] was more than 100 µM in each case. The molecule also yielded a TGI in [7] of more than 100 µM.

On to `N#CC(C#N)=Cc1ccc(Oc2ccccc2)cc1`, for which the TGI in [1] is more than 100 µM; in [2] it was more than 100 µM; in test [3], 84 µM; in test [4], 89.8 µM; in test [5], 56.7 µM; in [6], 37 µM. In addition, the TGI is 20.6 µM in test [7] and more than 100 µM in test [8].

Regarding `C[C@]12CC/C(=N\OC(=O)Nc3ccccc3)C=C1CC[C@@H]1C2CC[C@@]2(C)C1CC[C@@H]2OC(=O)Nc1ccccc1` (stereo partly drawn), the TGI in test [1] was 27.3 µM; in test [2], more than 100 µM; in [3] it was more than 100 µM; in [4] it was more than 100 µM; in test [5], more than 100 µM; in test [6], more than 100 µM.

Molecule `CS(=O)(=O)N(CC(=O)O)Cc1ccccc1` returned a TGI in test [9] of more than 100 µM.

On to `O=C(CC(=O)c1cccc([N+](=O)[O-])c1)C(=O)Nc1nc([N+](=O)[O-])cs1`, for which the TGI in [2], in test [3], in test [4], in [5], in [6] and in test [7] was more than 100 µM throughout. Also, the TGI in test [8] is more than 100 µM.

For `[O]=[W](=[O])([OH])[OH]`, in test [9], the GI50 was more than 100 µM and the TGI was more than 100 µM.

Regarding `CN1CCN(CCCN2c3ccccc3Sc3ccc(C(F)(F)F)cc32)CC1`, the TGI was 12.5 µM and 12.3 µM in test [9]; 5.22 µM in [2]; 23.4 µM in test [3]; 21.5 µM in test [4]; 23 µM in test [5]; 19.8 µM in [6]. Also, the TGI in [7] is 26.9 µM.

In test [9], `NCC(=O)NC(CO)C(=O)O` (stereo not drawn) yielded a TGI of more than 100 µM.

Consider `O=c1[nH]c(=O)n(C2OC(CO)C(O)C2O)cc1OCc1ccccc1` (stereo not drawn), for which the TGI in [1] was more than 100 µM; in [2] it was more than 100 µM; in test [3], more than 72.2 µM; in test [4], more than 100 µM; in test [5], more than 100 µM; in test [6], more than 100 µM. Also, the figures for the TGI in test [7] and in [8] were more than 78 µM and more than 100 µM, respectively.

Take `C/C=C1\C[C@@H]2C(OC)Nc3cc(O)c(OC)cc3C(=O)N2C1` (stereo partly drawn): the TGI in test [10] is less than 0.0123 µM; in test [1], 0.00398 µM; in [9], 0.0319 µM and < 0.0163 µM; in [2], 0.0909 µM and 0.045 µM; in test [3], 0.0035 µM; in test [5], 0.209 µM. Moreover, the TGI is 0.0917 µM and < 0.0143 µM in [6]; 20 µM in [7]; 0.0104 µM in [11]. For the same molecule, the GI50 in [1] is 0.00191 µM; in [9], 0.014 µM.

For `CC(=O)OCc1c(C)c2ccccc2n1C(C)=O`, the TGI was 84.6 µM in test [1]; more than 100 µM in test [2]; 47 µM in test [3]; more than 100 µM in test [4]; 59.9 µM in test [6]; 66.9 µM in test [8].

For `COc1ccc2c([nH]c3cc(O)c(C)cc32)c1CC=C(C)C`, the TGI in [1] is more than 25 µM; in test [2] it was more than 25 µM; in test [3], more than 25 µM; in test [5], more than 25 µM; in test [6], 16.8 µM; in test [7], more than 25 µM. Also, the GI50 in test [2] is 16.3 µM; in test [5], 8.63 µM; in test [6], 8.43 µM; in [7] it was 9.22 µM.

Molecule `COc1ccc(CCN2COc3ccc4ccc(=O)oc4c3C2)cc1OC` returned a TGI in [9] of more than 100 µM.

Take `CN1CCc2cc(O)c3cc2C1Cc1ccc(cc1)Oc1cc(ccc1O)CC1c2c(cc4c(c2O3)OCO4)CCN1C` (stereo not drawn): the TGI is 29.2 µM in test [1]; 45.9 µM in test [2]; 39.4 µM in [3]; 86.2 µM in [6]; more than 100 µM in test [7].

`O=[N+]([O-])c1cc([N+](=O)[O-])c(C(Cl)C(Cl)c2ccccc2)cc1C(Cl)C(Cl)c1ccccc1` (stereo not drawn): the TGI in [1] was found to be 3.55 µM; in [2], 4.22 µM; in test [3], 3.34 µM; in test [4], 3.53 µM; in [5], 2.87 µM; in test [6], 4.08 µM. The TGI in test [7] was 3.27 µM; in test [8], more than 21.1 µM.

As for `CC(C)N(C(=O)C12C3C4C5C3C1(C#N)C5C42)C(C)C` (stereo not drawn), the TGI in [1], in [2], in test [3], in test [4], in [5] and in [6] was more than 100 µM throughout. The molecule further returned a TGI in test [7] of more than 100 µM.

The record behind these values is PubChem BioAssay (NCI).
